The values below come from patent US5486526A, “Histamine H3 -receptor antagonists and therapeutic uses thereof” (The University of Toledo, priority 1993, dated 1996).

Experiment [1] concerns Male albino CF-1 mice. The experiment is described as follows: Behavioral effects in mice: sleep induced by (R)α-methylhistamine. The experiment is classed as in vivo, mouse. The following applies: i.p. As to the method: The overall strategy to show central nervous system antagonist activity was to challenge effects of the agonist (R)α-methylhistamine. Therefore, the first objective was to establish a dose response curve for behavioral effects of (R)α-methylhistamine. Male albino CF-1 mice weighing 20-30 g were used. Saline or (R)α-methylhistamine in saline was injected i.p. in a volume ≤0.4 ml. […] Animals were scored for the presence (1) or absence (0) of the behavior and the results were reported as the accumulated score for a 30 minute period (maximum score=9).
To assess the effects of antagonists, they were administered with the (R)α-methylhistamine in saline.

Experiment [2] deals with T1, histamine H3 receptor (Rattus norvegicus, UniProt Q9QYN8).
T1 construct: from tissue
T1 sequence (Q9QYN8 whole entry): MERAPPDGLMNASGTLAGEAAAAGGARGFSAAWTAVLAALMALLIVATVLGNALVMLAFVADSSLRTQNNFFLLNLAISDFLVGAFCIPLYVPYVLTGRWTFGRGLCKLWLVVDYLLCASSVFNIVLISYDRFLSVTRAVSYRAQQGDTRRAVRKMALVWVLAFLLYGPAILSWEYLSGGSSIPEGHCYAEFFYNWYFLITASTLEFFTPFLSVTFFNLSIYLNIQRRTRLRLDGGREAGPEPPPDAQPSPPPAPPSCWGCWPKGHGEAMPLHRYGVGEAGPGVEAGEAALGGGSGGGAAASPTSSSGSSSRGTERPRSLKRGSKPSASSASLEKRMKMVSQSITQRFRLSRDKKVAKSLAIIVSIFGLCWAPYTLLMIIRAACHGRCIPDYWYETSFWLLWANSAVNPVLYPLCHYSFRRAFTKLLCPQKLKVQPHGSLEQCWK
The experiment is described as follows: Inhibition of [^3 H]-N-alpha-methylhistamine binding to rat brain membranes. Conditions: for binding to the histamine H3 -receptor (in words): discussion of Table I. The procedure: A series of compounds were prepared and tested for their histamine H3 receptor antagonist activity. The antagonist activity of the compounds was detected by observing inhibition of (^3 H)-N-(alpha)methylhistamine activity on rat brain membranes.
The various compounds were tested for the ability to bind to the histamine H3 receptor. A binding assay in a rat brain membrane preparation, based on inhibition of binding of [^3 H]-N-alpha-methylhistamine using excess unlabeled alpha-methylhistamine to account for nonspecific binding, was developed.

The target of experiment [3] is Benzodiazephine. The following applies: reference compound; cited from earlier work.
Experiment [4] deals with Adenylate Cyclase Forskolin. The following applies: reference compound; cited from earlier work.
Experiment [5] concerns the target MK-801. Conditions: reference compound; cited from earlier work.
Experiment [6] deals with Adenosine. Conditions: reference compound; cited from earlier work.
The target of experiment [7] is NMDA. The following applies: reference compound; cited from earlier work.
The target in experiment [8] is Calcium. The following applies: reference compound; cited from earlier work.
Experiment [9] has as its target PCP. Conditions: reference compound; cited from earlier work.
Experiment [10] has as its target Quisqualate. Conditions: reference compound; cited from earlier work.
Experiment [11] deals with Serotonin 1. The following applies: reference compound; cited from earlier work.
Experiment [12] deals with Serotonin 2. Conditions: reference compound; cited from earlier work.
Experiment [13] concerns the target Dopamine 2. Conditions: reference compound; cited from earlier work.
Experiment [14] deals with ANF (rat). Conditions: reference compound; cited from earlier work.
In experiment [15] the target is Angiotensin. Conditions: reference compound; cited from earlier work.
Experiment [16] concerns the target Potassium. Conditions: reference compound; cited from earlier work.
The target of experiment [17] is EGF. Conditions: reference compound; cited from earlier work.
For experiment [18], the target named is NGF. Conditions: reference compound; cited from earlier work.
Experiment [19] has as its target Substance K. The following applies: reference compound; cited from earlier work.
Experiment [20] has as its target NPY. Conditions: reference compound; cited from earlier work.
Experiment [21] has as its target Neurotensin. Conditions: reference compound; cited from earlier work.
Experiment [22] has as its target Somatostatin. The following applies: reference compound; cited from earlier work.
For experiment [23], the target named is Substance P. Conditions: reference compound; cited from earlier work.
The target of experiment [24] is Bombesin. Conditions: reference compound; cited from earlier work.
Experiment [25] has as its target VIP. The following applies: reference compound; cited from earlier work.
The target in experiment [26] is Arg-Vasopressin V1. The following applies: reference compound; cited from earlier work.
Where [27] appears, read: ^3 HN^α -methylhistamine as radioligand, rat brain membranes, first part of Table I, read-out: IC50.
[28] abbreviates: ^3 HN^α -methylhistamine as radioligand, rat brain membranes, second part of Table I, read-out: IC50.

Like-named read-outs stand apart in the source and are kept apart here. Ends that are not written are not given here.

For `C[C@@H](N)Cc1c[nH]cn1` [(R)α-methylhistamine], the sleeping result in [1] (15 to 35 mg/kg, one hour after injection) was “dose-dependent (range of 15 to 35 mg/kg) increase in sleeping one hour after injection”; in [1] (30 minutes after injection) it was “evident at 30 minutes after injection”.

For `CNC(=S)NCCCCc1cnc[nH]1` [Burimamide, reference compound], the IC50 in [2] (setting [27]) was found to be 156 ± 57 nM.

With `O=C1CN=C(c2ccccc2Cl)c2cc([N+](=O)[O-])ccc2N1` [Clonazepam], the Ki in experiment [3] is 3.4 nM.

Compound `CC(C)(C)OC(=O)N1CCC(c2c[nH]cn2)CC1` [Compound 2] yielded an IC50 in [2] of 243.5 ± 1.9 nM.

Consider `O=C(CC1CCCCC1)N1CCC(c2c[nH]cn2)CC1` [Compound 3], for which, in [2], the IC50 is 19 ± 12 nM.

Regarding `O=C(CCCc1ccccc1)N1CCC(c2c[nH]cn2)CC1` [Compound 5], the IC50 in experiment [2] (setting [27]) worked out at 262 ± 9 nM.

As to `O=C(CCC1CCCCC1)N1CCC(c2c[nH]cn2)CC1` [Compound 6], in experiment [2] (setting [27]), the IC50 is 34 ± 1.4 nM.

As to `O=C(CCc1ccccc1)N1CCC(c2c[nH]cn2)CC1` [Compound 7], the IC50 in [2] (setting [27]) came to 34.1 ± 3.6 nM.

Regarding `O=C(/C=C/c1ccccc1)N1CCC(c2c[nH]cn2)CC1` [Compound 10], the half-maximal inhibitory concentration (IC50) in experiment [2] (setting [28]) is 570 ± 172 nM.

`O=C(C(c1ccccc1)C1CCCCC1)N1CCC(c2c[nH]cn2)CC1` (centres unmarked) [Compound 11]: the half-inhibitory concentration (IC50) in [2] (setting [28]) stood at 260 ± 38 nM.

As for `O=C(CCCC1CCCCC1)N1CCC(c2c[nH]cn2)CC1` [Compound 12], the IC50 in [2] (setting [27]) turned out to be 41.4 ± 9 nM.

For `O=C(c1ccccc1)N1CCC(c2c[nH]cn2)CC1` [Compound 13], in experiment [2] (setting [27]), the IC50 was determined as 151 ± 44 nM.

`N#CN=C(Oc1ccccc1)N1CCC(c2c[nH]cn2)CC1` [Compound 47]: the concentration for half-maximal inhibition (IC50) in experiment [2] (setting [27]) was determined as 231 nM. For the same compound, the “binding to the histamine H3 -receptor (in words)” value (from here on “binding to the histamine H3”) in [2] is given as “ineffective at binding to the H3 -receptor”.

With `N#CN=C(NC1CCCCC1)N1CCC(c2c[nH]cn2)CC1` [Compound 48], the “binding to the histamine H3” value in experiment [2] was “ineffective at binding to the H3 -receptor”.

Take `N#CN=C(Nc1ccc(-c2c[nH]cn2)cc1)NC1CCCCC1` [Compound 50]: the “binding to the histamine H3” value in experiment [2] is “ineffective at binding to the H3 -receptor”.

`O=C(CC(c1ccccc1)c1ccccc1)N1CCC(c2c[nH]cn2)CC1` [Compound 52]: in experiment [2] (setting [27]), the concentration for half-maximal inhibition (IC50) stood at 93.1 nM.

With `O=C(CCC(c1ccccc1)c1ccccc1)N1CCC(c2c[nH]cn2)CC1` [Compound 53], in [2] (setting [27]), the IC50 came out at 124 nM.

As to `O=C(CC=C(c1ccccc1)c1ccccc1)N1CCC(c2c[nH]cn2)CC1` [Compound 54], the IC50 in experiment [2] (setting [27]) came out at 1000 nM.

`C=C[C@@]1(C)CC(=O)[C@]2(O)[C@@]3(C)[C@@H](O)CCC(C)(C)[C@@H]3[C@H](O)[C@H](OC(C)=O)[C@@]2(C)O1` [Forskolin]: the inhibition constant Ki in experiment [4] was 29.4 nM.

On to `C[C@]12N[C@H](Cc3ccccc31)c1ccccc12` [MK801], for which the Ki in [5] is 4.3 nM.

As to `CCNC(=O)[C@H]1O[C@@H](n2cnc3c(N)ncnc32)[C@H](O)[C@@H]1O` [NECA], in experiment [6], the inhibition constant (Ki) was 120 nM.

For the compound `CN[C@H](CC(=O)O)C(=O)O` [NMDA], the inhibition constant (Ki) in [7] is 359 nM.

Take `COC(=O)C1=C(C)NC(C)=C(C(=O)OC)C1c1ccccc1[N+](=O)[O-]` [Nifedipine]: in experiment [8], the Ki is 1.6 nM.

For the compound `c1ccc(C2(N3CCCCC3)CCCCC2)cc1` [PCP], in experiment [9], the inhibition constant Ki was 62.3 nM.

As for `N[C@@H](Cn1oc(=O)[nH]c1=O)C(=O)O` [Quisqualic Acid], the Ki in experiment [10] was 11.8 nM.

As for `NCCc1c[nH]c2ccc(O)cc12` [Serotonin], the inhibitory constant (Ki) is 4.6 nM in experiment [11] and 531 nM in experiment [12].

On to `O=C(CCCN1CCC2(CC1)C(=O)NCN2c1ccccc1)c1ccc(F)cc1` [Spiperone], for which the Ki in [13] is 0.08 nM.

For the compound `CNCCc1c[nH]cn1` [[^3 H]-N-alpha-methylhistamine, reference compound], the affinity in [2], expressed as Kd, was 0.19 nM.

As for ANP: Reference Compound, in [14], the inhibition constant (Ki) is 0.15 nM.

With Angiotensin II: Reference Compound, in [15], the inhibition constant Ki was 0.2 nM.

Take “Apamin: Reference Compound (CNCKAPETALCARRCQQH; ends and bridges not checked; cysteine pairing not given here; UniProt P01500 28-45, looked up)”: the inhibition constant Ki in [16] is 0.05 nM.

For EGF: Reference Compound, the Ki in experiment [17] was 0.24 nM.

As for NGF: Reference Compound, the Ki in experiment [18] is 0.8 nM.

Regarding Neurokinin A: Reference Compound, the Ki in [19] was 2.75 nM.

Consider Neuropeptide Y: Reference Compound, for which the Ki in experiment [20] is 0.5 nM.

With Neurotensin, in [21], the inhibition constant Ki is 1.23 nM.

Regarding Somatostatin: Reference Compound, in experiment [22], the Ki was 0.03 nM.

In the case of Substance P: Reference Compound, the Ki in [23] was 0.08 nM.

For Tyr4-Bombesin, the inhibition constant (Ki) in experiment [24] is 0.55 nM.

Consider VIP: Reference Compound, for which, in experiment [25], the Ki was 1.53 nM.

As to arg-Vasopressin: Reference Compound, the inhibition constant Ki in experiment [26] was 4.9 nM.

One may read the IC50 as the concentration that gives 50% inhibition. For orientation: Ki means a dissociation constant, usually derived from enzyme kinetics or from competition with a known ligand. As a reminder, the Kd is a measure of binding affinity in units of concentration. Read a high Kd as lower affinity.
